# Results reported in patent publication US5624906A, “Oral hygiene compositions comprising heteroatom containing alkyl aldonamide compounds” (Lever Brothers Company, Division of Conopco, Inc., priority 1994, dated 1997).
# Experiments:
# [1] = Krafft point; type: physicochemical; conditions: for Krafft Point (0.1%): 0.1% in water; for Krafft Point (1.0%): 1.0% in water
# Experimental: The temperature at and above which surfactants begin to form micelles instead of precipitates is referred to as the Krafft point (Tk) and at this temperature the solubility of a surfactant becomes equal to its CMC (numerical value at which micelles are formed).
# The Krafft point was measured by preparing 650 ml of a 0.1% or 1.0% dispersion of aldonamide in water by weight. If the surfactant was soluble at room temperature, the solution was slowly cooled to 0° C. […] (less than zero). If it precipitated out of solution, the temperature at which precipitation occurs was taken as the Krafft point.
# If the surfactant was insoluble at room temperature, the dispersion was slowly heated until the solution became homogeneous. It was then slowly cooled until precipitation occurred. The temperature at which the surfactant precipitates out of solution upon cooling was taken as the Krafft point.
# [2] = Ross-Miles foam height (Examples 81-84); type: physicochemical; conditions: for Foam Height Initial / Foam Height Final: 0.1% aldonamide, 40° C. (or 5-10° C. above Krafft point), 0 ppm hardness; for Foam Height Final: after 10 minutes; for Solubility: 0.1% in water
# Experimental: In the Ross-Miles method, 200 mL of a surfactant solution contained in a pipette of specified dimensions with a 2.9-mm-i.d. orifice is allowed to fall 90 cm onto 50 mL of the same solution contained in a cylindrical vessel maintained at a given temperature by means of a water jacket. The height of the foam produced in the cylindrical vessel is read immediately after all the solution has run out of the pipette and then again after a given amount of time.
# Using this method, the foam production (initial foam height in mm) and foam stability (final foam height after 10 minutes in mm) were measured at 0.1% aldonamide concentration, 40° C. and 0 ppm (parts per million) hardness.
Compound,Krafft Point (0.1%) [1] [°C],Foam Height Initial [2] [mm],Foam Height Final [2] [mm],Krafft Point (1.0%) [1] [°C],Solubility [2]
"CCCCCCCCCCCCOC(=O)C(C)NC(=O)[C@H](O)[C@@H](O)[C@H](O)[C@H](O)CO (mixture of isomers) [N-D-Gluconyl C12 DL-Alaninate, N-D-Gluconyl Dodecyl DL-Alaninate]",53,–,–,–,–
CCCCCCCNC(=O)[C@H](O)[C@@H](O)[C@H](O)[C@H](O)CO [C7 D-Gluconamide],< 0,0,0,–,–
CCCCCCCCNC(=O)[C@H](O)[C@@H](O)[C@H](O)[C@H](O)CO [C8 D-Gluconamide],12,0,0,–,–
"CCCCCCCCCNC(=O)[C@H](O)[C@@H](O)[C@H](O[C@@H]1O[C@H](CO)[C@H](O)[C@H](O)[C@H]1O)[C@H](O)CO [C9 D-Lactobionamide, nonyl D-lactobionamide]",–,0,0,42,–
CCCCCCCCCCCNC(=O)[C@H](O)[C@@H](O)[C@H](O)[C@H](O)CO [C11 D-Gluconamide],87,–,–,–,–
CCCCCCCCCCCNC(=O)[C@H](O)[C@@H](O)[C@H](O[C@@H]1O[C@H](CO)[C@H](O)[C@H](O)[C@H]1O)[C@H](O)CO [C11 D-Lactobionamide],–,0,0,61,–
CCCCCCCCCCCCNC(=O)[C@H](O)[C@@H](O)[C@@H](O)[C@H](O)CO [C12 D-Galactonamide],> 100,–,–,–,Insoluble
CCCCCCCCCCCCNC(=O)[C@H](O)[C@H](O)[C@@H](O)[C@H](O)[C@H](O)CO [C12 D-Glucoheptonamide],91,–,–,–,–
CCCCCCCCCCCCNC(=O)C(O)C(O)C(O)C(O)C(O)C(O)CO [C12 D-Glucooctonamide],< 86,–,–,–,–
CCCCCCCCCCCCNC(=O)[C@H](O)[C@H](O)[C@@H](O)[C@@H](O)[C@H](O)CO [C12 D-Glycero-L-Mannoheptonamide],> 100,–,–,–,Insoluble
CCCCCCCCCCCCNC(=O)[C@H](O)[C@@H](O)[C@H](O[C@@H]1O[C@H](CO)[C@H](O)[C@H](O)[C@H]1O)[C@H](O)CO [C12 D-Lactobionamide],–,–,20,38,–
CCCCCCCCCCCCNC(=O)[C@@H](O)[C@H](O)[C@H](O)[C@@H](O)CO [C12 L-Galactonamide],> 100,–,–,–,Insoluble
CCCCCCCCCCCCNC(=O)[C@@H](O)[C@H](O)[C@@H](O)[C@@H](O)CO [C12 L-Gluconamide],91,–,–,–,–
CCCCCCCCCCCCNC(=O)[C@H](O)[C@H](O)[C@@H](O)[C@@H](O)CO [C12 L-Mannonamide],> 100,–,–,–,Insoluble
CCCCCCCCCCCCOCCCNC(=O)[C@H](O)[C@H](O)[C@@H](O)[C@H](O)[C@H](O)CO [C12 Oxypropyl D-Glucoheptonamide],73,–,80,–,–
"CCCCCCCCCCCCOCCCNC(=O)[C@H](O)[C@@H](O)[C@H](O[C@H]1O[C@H](CO)[C@@H](O)[C@H](O)[C@H]1O)[C@H](O)CO [C12 Oxypropyl D-Maltobionamide, dodecyloxypropyl D-maltobionamide]",–,–,–,< 0,–
"CCCCCCCCCCCCNC(=O)[C@H](O)[C@H](O)[C@H](O)CO [C12 Ribonamide, dodecyl D-ribonamide]",54,–,–,–,–
CCCCCCCCCCCCCNC(=O)[C@H](O)[C@@H](O)[C@H](O[C@@H]1O[C@H](CO)[C@H](O)[C@H](O)[C@H]1O)[C@H](O)CO [C13 D-Lactobionamide],–,–,78,70,–
CCCCCCCCCCCCCCNC(=O)[C@H](O)[C@@H](O)[C@H](O)[C@H](O)CO [C14 D-Gluconamide],> 100,–,–,–,Insoluble
CCCCCCCCCCCCCCNC(=O)[C@H](O)[C@@H](O)[C@H](O[C@@H]1O[C@H](CO)[C@H](O)[C@H](O)[C@H]1O)[C@H](O)CO [C14 D-Lactobionamide],–,–,59,18,–
CCCCCCCCCCCCCCNC(=O)[C@H](O)[C@@H](O)[C@H](O[C@H]1O[C@H](CO)[C@@H](O)[C@H](O)[C@H]1O)[C@H](O)CO [C14 D-Maltobionamide],–,–,140,46,–

Compound,Krafft Point (0.1%) [1] [°C],Foam Height Initial [2] [mm],Foam Height Final [2] [mm],Krafft Point (1.0%) [1] [°C],Solubility [2]
CCCCCCCCCCCCCCOCCCNC(=O)[C@H](O)[C@@H](O)[C@H](O)[C@H](O)CO [C14 Oxypropyl D-Gluconamide],53,–,–,–,–
"CCCCCCCCCCCCCCOCCCNC(=O)[C@H](O)[C@@H](O)[C@H](O[C@@H]1O[C@H](CO)[C@H](O)[C@H](O)[C@H]1O)[C@H](O)CO [C14 Oxypropyl D-Lactobionamide, tetradecyloxypropyl D-lactobionamide]",–,–,–,< 0,–
CCCCCCCCCCCCCCCNC(=O)[C@H](O)[C@@H](O)[C@H](O[C@@H]1O[C@H](CO)[C@H](O)[C@H](O)[C@H]1O)[C@H](O)CO [C15 D-Lactobionamide],–,–,–,84,–
CCCCCCCCCCCCCCCCNC(=O)[C@H](O)[C@@H](O)[C@H](O)[C@H](O)CO [C16 D-Gluconamide],> 100,–,–,–,Insoluble
CCCCCCCCCCCCCCCCNC(=O)[C@H](O)[C@@H](O)[C@H](O[C@@H]1O[C@H](CO)[C@H](O)[C@H](O)[C@H]1O)[C@H](O)CO [C16 D-Lactobionamide],–,95,95,64,–
CCCCCCCCCCCCCCCCCCNC(=O)[C@H](O)[C@@H](O)[C@H](O)[C@H](O)CO [C18 D-Gluconamide],> 100,–,–,–,Insoluble
CCCCCCCCCCCCCCCCCCNC(=O)[C@H](O)[C@@H](O)[C@H](O[C@@H]1O[C@H](CO)[C@H](O)[C@H](O)[C@H]1O)[C@H](O)CO [C18 D-Lactobionamide],–,–,–,82,–
"CCCCCCCCCCCCOC(=O)CNC(=O)[C@H](O)[C@@H](O)[C@H](O[C@@H]1O[C@H](CO)[C@H](O)[C@H](O)[C@H]1O)[C@H](O)CO [D-Lactobionyl C12 Glycinate, N-D-lactobionyl dodecyl glycinate]",–,–,–,< 0,–
"CCCCCCCCCCCCOC(=O)CCNC(=O)[C@H](O)[C@@H](O)[C@H](O[C@@H]1O[C@H](CO)[C@H](O)[C@H](O)[C@H]1O)[C@H](O)CO [D-Lactobionyl C12 β-Alaninate, N-D-lactobionyl dodecyl β-alaninate]",–,–,–,< 0,–
CCCCC(CC)COCCCNC(=O)[C@H](O)[C@@H](O)[C@H](O)[C@H](O)CO (stereo partly drawn) [Ethylhexyloxypropyl D-Gluconamide],< 0,0,0,–,–
"CCCCCCCCCCCCOCCOCCOC(=O)CNC(=O)[C@H](O)[C@@H](O)[C@H](O)[C@H](O)CO [N-D-Gluconyl C12 Di(oxyethyl) Glycinate, N-D-Gluconyl Dodecyldi(oxyethyl) Glycinate]",< 0,–,–,–,–
"CCCCCCCCCCCC(=O)OCCNC(=O)[C@H](O)[C@@H](O)[C@H](O)[C@H](O)CO [N-D-Gluconyl C12 Ester of Ethanolamine, N-D-gluconyl dodecyl ester of ethanolamine]",63,–,–,–,–
"CCCCCCCCCCCCOC(=O)CNC(=O)[C@H](O)[C@@H](O)[C@H](O)[C@H](O)CO [N-D-Gluconyl C12 Glycinate, N-D-gluconyl dodecyl glycinate]",63,–,–,–,–
"CCCCCCCC/C=C\CCCCCCCCNCCCNC(=O)[C@H](O)[C@@H](O)[C@H](O)[C@H](O)CO [Oleylaminopropyl D-Gluconamide, oleylaminopropyl D-gluconamide]",< 0,–,84,–,–
"CCCCCCCC/C=C\CCCCCCCCNCCCNC(=O)[C@H](O)[C@@H](O)[C@H](O[C@@H]1O[C@H](CO)[C@H](O)[C@H](O)[C@H]1O)[C@H](O)CO [Oleylaminopropyl D-Lactobionamide, oleylaminopropyl D-lactobionamide]",–,–,–,< 0,–
cocoaminopropyl D-lactobionamide,–,171,168,< 0,–
dodecyl to pentadecyloxypropyl D-gluconamide [C12 -C15 Oxypropyl D-Gluconamide],58,200,110,–,–
dodecyl to pentadecyloxypropyl D-lactobionamide [C12 -C15 Oxypropyl D-Lactobionamide],–,166,155,< 0,–
dodecyl to pentadecyloxypropylaminopropyl D-gluconamide,< 0,180,–,–,–
dodecyl to pentadecyloxypropylaminopropyl D-lactobionamide,–,173,169,< 0,–
soyaaminopropyl D-gluconamide,< 18,–,–,–,–
